Columns and labels:
FPTase [1] = target: T1, FPTase (Homo sapiens, UniProt P49354+P49356); experiment: in vitro FTase Inhibition Assay, K-Ras used as substrate for farnesylation; assay type: biochemical; conditions: Table I
Protocol: Enzyme test procedure: FPTase inhibition in vitro assay was performed according to James, G. L., Brown, M. S., and Goldstein, J. L., Methods in Enzymology, 1995, 255, 38-46; and Garcia, M. A., et al., J. Biol. Chem., 1993, 268, 18415-18420.
Materials—Purified FPTase (Moomaw, J. F. and Casey, P. J., J. Biol. Chem., 1992, 267, 17438-17443), purified His6-Ras, inhibitor compounds at 10 mg/ml or 10 mM in 100% DMSO, ^3H-FPP (50,000 dpm/pmol) Amersham, TCA/SDS (6%/2%), TCA (6%), Glass fiber filters ([…]), vacuum manifold or 96 well filtration plates.
Methods—1. Dilute FPTase inhibitors from stock solutions to 2.5× in 2.5% DMSO, 10 mM DTT, 0.5% octyl-B-glucoside. 2. Solution #1 is added to FPTase reaction in a volume of […]. 3. Standard reaction mix, […], contains 50 mM Tris (7.5), 10 mM ZnCl2, 3 mM MgCl2, 20 mM KCl, 5 mM DTT, 0.2% octyl-B-glucoside, 1% DMSO, […] His6-Ras, 10 ng FPTase, and various concentrations of FPTase inhibitors. 4. Incubate for 30-90 min at 25° C. 5. Stop reactions with TCA/SDS (6%/2%), hold at 4° C. for 45-60 min. 6. Filter by manifold or 96 well plate, wash filter 3-5× with TCA (6%). 7. Add scintillant to filters, measure ^3H-FPP incorporation into Ras protein.
Analysis of Results—Percent inhibition by test compounds is determined by the following:
(cpm from precipitated Ras with test compounds)−(background cpm)×100=% inhibition.
(cpm from precipitated Ras without test compounds)−(background cpm)

FPTase [2] = target: T1, FPTase; experiment: in vitro FTase Inhibition Assay, H-Ras used as substrate for farnesylation; assay type: biochemical; conditions: Table I, read-out: IC50 H-Ras*
[3] = system: K-ras dependent human colon carcinoma (LoVo); experiment: in vivo effects against K-ras dependent human colon carcinoma (LoVo); conditions: for S/T = No. Survivors/No.Treated: Day +35 post tumor cell implantation
Text: […] For the compound of example 114, when tested against a K-ras dependent human colon carcinoma (LoVo), the following results were obtained (Table III):

[4] = 50 mg/kg per dose IP, BID days 1 through 20, control 0.5% Methocel 0.4% Tween 80
[5] = 75 mg/kg per dose IP, BID days 1 through 20, control 0.5% Methocel 0.4% Tween 80
[6] = 100 mg/kg per dose IP, once a day on days 1 through 20, control 0.5% Methocel 0.4% Tween 80
[7] = 100 mg/kg per dose PO, BID days 1 through 20, control 0.5% Methocel 0.4% Tween 80
[8] = 100 mg/kg per dose PO, BID days 1 through 20, control 20% BCD in 1.1N HCl
[9] = 75* mg/kg per dose IP, BID days 1 through 20, prepared in 2% Tween 80 in D5W, control 2% Tween in D5W

## COc1ccc(SC2(CCCCCCCCCC#Cc3ccc(Cl)cc3)SC(=O)NC2=O)cc1 (stereo not drawn) [Example 94, 5-[11-(4-Chlorophenyl)undec-10-ynyl]-5-(4-methoxy-phenylsulfanyl)-thiazolidine-2,4-dione]
other
  melting point: 54 to 56 °C

## COc1ccc(S(=O)(=O)C2(CCCCC#Cc3ccc(Cl)cc3)SC(=O)NC2=O)cc1 (stereo not drawn) [Example 98, 5-[6-(4-Chlorophenyl)hex-5-ynyl]-5-(4-methoxyphenylsulfonyl)-thiazolidine-2,4-dione]
other
  melting point: 145 to 148 °C

## COc1ccc(S(=O)(=O)C2(CCCC#Cc3ccccc3Cl)SC(=O)NC2=O)cc1 (stereo not drawn) [Example 101, 5-[5-(2-Chlorophenyl)pent-4-ynyl]-5-(4-methoxybenzenesulfonyl)thiazolidine-2,4-dione]
FPTase [1]
  IC50: 110 to 1000 nM
FPTase [2]
  IC50: 10 to 30 nM
other
  melting point: 133 to 135 °C

## COc1ccc(S(=O)(=O)C2(CCCC#Cc3cccc(Cl)c3)SC(=O)NC2=O)cc1 (stereo not drawn) [Example 102, 5-[5-(3-Chlorophenyl)pent-4-ynyl]-5-(4-methoxybenzenesulfonyl)thiazolidine-2,4-dione]
FPTase [1]
  IC50: 1400 nM
FPTase [2]
  IC50: 30 to 32 nM
other
  melting point: 134 to 136 °C

## Cc1ccc(S(=O)(=O)C2(CCCC#Cc3ccc(Cl)cc3)SC(=O)NC2=O)cc1 (stereo not drawn) [Example 103, 5-[5-(4-Chlorophenyl)pent-4-ynyl]-5-(p-tolylsulfonyl)thiazolidine-2,4-dione]
FPTase [1]
  IC50: 900 to 10000 nM
FPTase [2]
  IC50: 30 to 50 nM
other
  melting point: 176 to 177 °C

## O=C1NC(=O)C(CCCC#Cc2ccc(Cl)cc2)(S(=O)(=O)c2ccc(I)cc2)S1 (stereo not drawn) [Example 104, 5-[5-(4-Chlorophenyl)pent-4-ynyl]-5-(4-iodobenzenesulfonyl)thiazolidine-2,4-dione]
FPTase [1]
  IC50: 230 to 900 nM
FPTase [2]
  IC50: 30 to 54 nM
other
  melting point: 157 to 159 °C

## O=C1NC(=O)C(CCCC#Cc2ccc(Cl)cc2)(S(=O)(=O)c2ccc(Oc3ccccc3)cc2)S1 (stereo not drawn) [Example 106, 5-[5-(4-Chlorophenyl)pent-4-ynyl]-5-(4-phenoxybenzenesulfonyl)-thiazolidine-2,4-dione]
FPTase [1]
  IC50: 1300 to 1700 nM
FPTase [2]
  IC50: 230 to 250 nM
other
  melting point: 193 to 194 °C

## O=C1NC(=O)C(CCCC#Cc2ccc(Cl)cc2)(S(=O)(=O)c2ccc3ccccc3c2)S1 (stereo not drawn) [Example 107, 5-[5-(4-Chlorophenyl)pent-4-ynyl]-5-(naphthalene-2-sulfonyl)thiazolidine-2,4-dione]
FPTase [1]
  IC50: 620 to 700 nM
FPTase [2]
  IC50: 180 to 200 nM
other
  melting point: 150 to 153 °C

## CC(=O)Nc1ccc(S(=O)(=O)C2(CCCC#Cc3ccc(Cl)cc3)SC(=O)NC2=O)cc1 (stereo not drawn) [Example 108, N-(4-{5-[5-(4-Chlorophenyl)pent-4-ynyl]-2,4-dioxothiazolidine-5-sulfonyl}phenyl)acetamide]
FPTase [1]
  IC50: ≥ 9000 nM
FPTase [2]
  IC50: 130 to 180 nM
other
  melting point: 232 °C (dec.)

## O=C1NC(=O)C(CCCC#Cc2ccc(Cl)cc2)(S(=O)(=O)c2ccc(OCc3ccccc3)cc2)S1 (stereo not drawn) [Example 111, 5-(4-Benzyloxybenzenesulfonyl)-5-[5-(4-chlorophenyl)pent-4-ynyl]-thiazolidine-2,4-dione]
FPTase [1]
  IC50: 300 to 550 nM
FPTase [2]
  IC50: 110 to 150 nM
other
  melting point: 181 to 184 °C

## CCCCOc1ccc(S(=O)(=O)C2(CCCC#Cc3ccc(Cl)cc3)SC(=O)NC2=O)cc1 (stereo not drawn) [Example 112, 5-(4-Butoxybenzenesulfonyl)-5-[5-(4-chlorophenyl)-pent-4-ynyl]-thiazolidine-2,4-dione]
FPTase [1]
  IC50: 1400 to 1500 nM
FPTase [2]
  IC50: 590 to 600 nM
other
  melting point: 116 to 118 °C

## O=C1NC(=O)C(CCCC#Cc2ccc(Cl)cc2)(S(=O)(=O)c2cccc3ccccc23)S1 (stereo not drawn) [Example 113, 5-[5-(4-Chlorophenyl)pent-4-ynyl]-5-(naphthalene-1-sulfonyl)-thiazolidine-2,4-dione]
FPTase [1]
  IC50: 750 to 800 nM
FPTase [2]
  IC50: 50 to 60 nM
other
  melting point: 172 to 174 °C

## COc1ccc(S(=O)(=O)C2(CCCC#Cc3cc(Cl)ccc3Cl)SC(=O)NC2=O)cc1 (stereo not drawn) [Example 114, 5-[5-(2,5-Dichloro-phenyl)pent-4-ynyl]-5-(4-methoxy-benzenesulfonyl)-thiazolidine-2,4-dione]
FPTase [1]
  IC50: 32 to 320 nM
FPTase [2]
  IC50: 13 to 32 nM
[3]; [4]
  % T/C, Day8: 74%
  % T/C, Day 15: 47%
  % T/C, Day 22: 43%
  % T/C, Day 29: 59%
  % T/C, Day 36: 76%
  Mean Tumor Weight, Day8: 65 mg
  Mean Tumor Weight, Day 15: 146 mg
  Mean Tumor Weight, Day 22: 258 mg
  Mean Tumor Weight, Day 29: 445 mg
  Mean Tumor Weight, Day 36: 964 mg
  S/T = No. Survivors/No.Treated: 5/10
[3]; [5]
  % T/C, Day8: 51%
  % T/C, Day 15: 36%
  % T/C, Day 22: 43%
  % T/C, Day 29: 67%
  % T/C, Day 36: 60%
  Mean Tumor Weight, Day8: 45 mg
  Mean Tumor Weight, Day 15: 110 mg
  Mean Tumor Weight, Day 22: 255 mg
  Mean Tumor Weight, Day 29: 504 mg
  Mean Tumor Weight, Day 36: 764 mg
  S/T = No. Survivors/No.Treated: 8/10
[3]; [6]
  % T/C, Day8: 35%
  % T/C, Day 15: 41%
  % T/C, Day 22: 42%
  % T/C, Day 29: 46%
  % T/C, Day 36: 44%
  Mean Tumor Weight, Day8: 31 mg
  Mean Tumor Weight, Day 15: 125 mg
  Mean Tumor Weight, Day 22: 251 mg
  Mean Tumor Weight, Day 29: 341 mg
  Mean Tumor Weight, Day 36: 559 mg
  S/T = No. Survivors/No.Treated: 9/10
[3]; [7]
  % T/C, Day8: 70%
  % T/C, Day 15: 77%
  % T/C, Day 22: 76%
  % T/C, Day 29: 81%
  % T/C, Day 36: 74%
  Mean Tumor Weight, Day8: 61 mg
  Mean Tumor Weight, Day 15: 238 mg
  Mean Tumor Weight, Day 22: 454 mg
  Mean Tumor Weight, Day 29: 608 mg
  Mean Tumor Weight, Day 36: 934 mg
  S/T = No. Survivors/No.Treated: 10/10
[3]; [8]
  % T/C, Day8: 81%
  % T/C, Day 15: 95%
  % T/C, Day 22: 88%
  % T/C, Day 29: 128%
  % T/C, Day 36: 107%
  Mean Tumor Weight, Day8: 50 mg
  Mean Tumor Weight, Day 15: 138 mg
  Mean Tumor Weight, Day 22: 299 mg
  Mean Tumor Weight, Day 29: 641 mg
  Mean Tumor Weight, Day 36: 872 mg
  S/T = No. Survivors/No.Treated: 9/10
[3]; [9]
  % T/C, Day8: 221%
  % T/C, Day 15: 150%
  % T/C, Day 22: 163%
  % T/C, Day 29: 167%
  % T/C, Day 36: 157%
  Mean Tumor Weight, Day8: 86 mg
  Mean Tumor Weight, Day 15: 182 mg
  Mean Tumor Weight, Day 22: 324 mg
  Mean Tumor Weight, Day 29: 478 mg
  Mean Tumor Weight, Day 36: 666 mg
  S/T = No. Survivors/No.Treated: 10/10

## COC(=O)c1ccc(C#CCCCC2(S(=O)(=O)c3ccc(OC)cc3)SC(=O)NC2=O)c(C)c1 (stereo not drawn) [Example 160, 4-{5-[5-(4-Methoxybenzenesulfonyl)-2,4-dioxothiazolidin-5-yl]pent-1-ynyl}-3-methylbenzoic Acid Methyl Ester]
other
  melting point: 128 to 130 °C

## COc1ccc(S(=O)(=O)C2(CCCC#Cc3ccc(-n4cccc4)cc3)SC(=O)NC2=O)cc1 (stereo not drawn) [Example 161, 5-(4-Methoxybenzenesulfonyl)-5-[5-(4-pyrrol-1-yl-phenyl)pent-4-ynyl]-thiazolidine-2,4-dione]
FPTase [2]
  IC50: 900 nM
other
  melting point: 206 to 207 °C

## O=C1NC(=O)C(CCCC#Cc2ccc(-n3cccc3)cc2)(S(=O)(=O)c2ccc(OC(F)(F)F)cc2)S1 (stereo not drawn) [Example 163, 5-[5-(4-Pyrrol-1-ylphenyl)pent-4-ynyl]-5-(4-trifluoromethoxybenzenesulfonyl)-thiazolidine-2,4-dione]
FPTase [2]
  IC50: 1300 nM
other
  melting point: 204 to 206 °C
